From patent US7179825B2, “Retinoic acid mimetic anilides” (Janssen Pharmaceutica N.V., priority 1997, dated 2007)

Legend:
[1] = tested on: metabolism of retinoic acid in human breast cancer cells; experiment: Inhibition of retinoic acid (RA) metabolism (Example C.1); format: cell-based; settings: MCF-7 human breast cancer cells, 3H-RA as substrate; concentration needed to reduce the amount of metabolites to 50% of the control
How it was run: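 MCF-7 cells, pre-stimulated with RA the day before, incubated with ³H-RA substrate and test compound in 1% DMSO. Polar ³H-metabolites separated from unmetabolized RA and counted by scintillation. IC50 is the concentration cutting metabolite formation to 50% of control, with blank run alongside.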

Ovariectomized rats = experiment: Vaginal keratinization test on ovariectomized rats (Example C.2); format: in vivo; settings: estradiol undecylate induced keratinization, per os once daily on days 1-3, active dose = 50% of rats show complete suppression
How it was run: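 Ovariectomized rats given s.c. estradiol undecylate (100 μg per 100 g body weight in sesame oil), then oral compound once daily on days 1-3 (vehicle PEG 200). Vaginas assessed histologically one day after last dose; lowest active dose (mg/kg) is the dose giving complete keratinization suppression in 50% of rats.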

CC(C)C(c1ccc(NC(=O)Cc2ccc(O)cc2)cc1)n1cncn1 (stereo not shown) [Compound 134]
IC50 [1]: 2.98 nM
LAD (lowest active dose) (Ovariectomized rats): 5.00 mg/kg

CCOc1ccc(CC(=O)Nc2ccc(C(C(C)C)n3cncn3)cc2)cc1 (stereo not shown) [Compound 135]
IC50 [1]: 1.43 nM
LAD (lowest active dose) (Ovariectomized rats): 2.50 mg/kg

COc1ccc(CC(=O)Nc2ccc(C(C(C)C)n3cncn3)cc2)cc1OC.O (stereo not shown) [Compound 136]
IC50 [1]: 4.83 nM
LAD (lowest active dose) (Ovariectomized rats): 5.00 mg/kg

CC(C)C(c1ccc(NC(=O)Cc2cccc(O)c2)cc1)n1cncn1 (stereo not shown) [Compound 137]
IC50 [1]: 1.85 nM
LAD (lowest active dose) (Ovariectomized rats): >5.00 mg/kg

COc1cc(CC(=O)Nc2ccc(C(C(C)C)n3cncn3)cc2)ccc1O (stereo not shown) [Compound 138]
IC50 [1]: 6.38 nM
LAD (lowest active dose) (Ovariectomized rats): >5.00 mg/kg

COc1cc(CC(=O)Nc2ccc(C(C(C)C)n3ccnc3)cc2)cc(OC)c1OC (stereo not shown) [Compound 139]
IC50 [1]: 1.75 nM
LAD (lowest active dose) (Ovariectomized rats): 10.00 mg/kg

COc1ccc(CC(=O)Nc2ccc(C(C(C)C)n3ccnc3)cc2)cc1OC (stereo not shown) [Compound 140]
IC50 [1]: 21.5 nM
LAD (lowest active dose) (Ovariectomized rats): 5.00 mg/kg

CC(C)C(c1ccc(NC(=O)Cc2ccc(Cl)cc2Cl)cc1)n1ccnc1 (stereo not shown) [Compound 141]
IC50 [1]: 1.31 nM
LAD (lowest active dose) (Ovariectomized rats): >10.00 mg/kg

COc1cc(CC(=O)Nc2ccc(C(C(C)C)n3ccnc3)cc2)ccc1O (stereo not shown) [Compound 142]
IC50 [1]: 31.1 nM
LAD (lowest active dose) (Ovariectomized rats): 5.00 mg/kg

CC(C)C(c1ccc(NC(=O)Cc2ccc(Cl)c(Cl)c2)cc1)n1ccnc1 (stereo not shown) [Compound 143]
IC50 [1]: 4.08 nM
LAD (lowest active dose) (Ovariectomized rats): 10.00 mg/kg

CC(C)C(c1ccc(NC(=O)Cc2ccc(N)c(I)c2)cc1)n1ccnc1 (stereo not shown) [Compound 148]
IC50 [1]: 1.86 nM
LAD (lowest active dose) (Ovariectomized rats): >5.00 mg/kg

CC(C)C(c1ccc(NC(=O)Cc2ccc([N+](=O)[O-])cc2)cc1)n1ccnc1 (stereo not shown) [Compound 151]
IC50 [1]: 2.11 nM
LAD (lowest active dose) (Ovariectomized rats): 5.00 mg/kg

CC(C)C(c1ccc(NC(=O)Cc2ccc(N)cc2)cc1)n1ccnc1 (stereo not shown) [Compound 152]
IC50 [1]: 5.18 nM
LAD (lowest active dose) (Ovariectomized rats): >5.00 mg/kg

C/C(=C\c1ccncc1)C(=O)Nc1ccc(C(C(C)C)n2cncn2)cc1 (stereo not shown) [Compound 158]
IC50 [1]: > 100 nM
LAD (lowest active dose) (Ovariectomized rats): >10.00 mg/kg

C/C(=C\c1ccc(C(F)(F)F)cc1)C(=O)Nc1ccc(C(C(C)C)n2cncn2)cc1 (stereo not shown) [Compound 159]
IC50 [1]: > 100 nM
LAD (lowest active dose) (Ovariectomized rats): >10.00 mg/kg

CC(C)C(c1ccc(NC(=O)C2Oc3ccccc3O2)cc1)n1cncn1 (stereo not shown) [Compound 161]
IC50 [1]: 1.87 nM
LAD (lowest active dose) (Ovariectomized rats): >2.50 mg/kg

CC(C)C(c1ccc(NC(=O)CC2COc3ccccc3O2)cc1)n1cncn1 (stereo not shown) [Compound 162]
IC50 [1]: 2.88 nM
LAD (lowest active dose) (Ovariectomized rats): >5.00 mg/kg

CC(C)C(c1ccc(NC(=O)C2COc3ccccc3O2)cc1)n1ccnc1 (stereo not shown) [Compound 175]
IC50 [1]: 4.83 nM
LAD (lowest active dose) (Ovariectomized rats): 10.00 mg/kg

CC(C)C(c1ccc(NC(=O)c2cccc3ccccc23)cc1)n1ccnc1 (stereo not shown) [Compound 182]
IC50 [1]: 13.1 nM
LAD (lowest active dose) (Ovariectomized rats): 10.00 mg/kg

CCOC(=O)Nc1ccc(C(C(C)C)n2ccnc2)cc1 (stereo not shown) [Compound 183]
IC50 [1]: 7.4 nM
LAD (lowest active dose) (Ovariectomized rats): >10.00 mg/kg

CC(C)C(c1ccc(NC(=O)c2cccs2)cc1)n1ccnc1 (stereo not shown) [Compound 187]
IC50 [1]: 18.8 nM
LAD (lowest active dose) (Ovariectomized rats): >10.00 mg/kg

CC(C)C(c1ccc(NC(=O)C2(c3ccccc3)CC2)cc1)n1ccnc1 (stereo not shown) [Compound 190]
IC50 [1]: > 100 nM
LAD (lowest active dose) (Ovariectomized rats): >10.00 mg/kg

CC(C)C(c1ccc(NC(=O)C2(c3ccccc3)CCCC2)cc1)n1ccnc1 (stereo not shown) [Compound 191]
IC50 [1]: > 100 nM
LAD (lowest active dose) (Ovariectomized rats): >10.00 mg/kg

CC(C)C(c1ccc(NC(=O)c2cccn2C)cc1)n1ccnc1 (stereo not shown) [Compound 195]
IC50 [1]: 35.1 nM
LAD (lowest active dose) (Ovariectomized rats): >10.00 mg/kg

CC(C)C(c1ccc(NC(=O)C2CC2)cc1)n1ccnc1 (stereo not shown) [Compound 199]
IC50 [1]: 7.82 nM
LAD (lowest active dose) (Ovariectomized rats): >10.00 mg/kg

CC(C)C(c1ccc(NC(=O)C2(c3ccccc3)CCCCC2)cc1)n1ccnc1 (stereo not shown) [Compound 200]
IC50 [1]: 44.3 nM
LAD (lowest active dose) (Ovariectomized rats): >10.00 mg/kg

CC/C(=C(\C)C(=O)Nc1ccc(C(C(C)C)n2ccnc2)cc1)c1ccccc1 (stereo not shown) [Compound 203]
IC50 [1]: 22.8 nM
LAD (lowest active dose) (Ovariectomized rats): >10.00 mg/kg

COCC(=O)Nc1ccc(C(C(C)C)n2ccnc2)cc1 (stereo not shown) [Compound 212]
IC50 [1]: 4.07 nM
LAD (lowest active dose) (Ovariectomized rats): 20.00 mg/kg

CC(C)C(c1ccc(NC(=O)c2ccc3nccnc3c2)cc1)n1ccnc1 (stereo not shown) [Compound 214]
IC50 [1]: 3.37 nM
LAD (lowest active dose) (Ovariectomized rats): 20.00 mg/kg

CC(C)C(c1ccc(NC(=O)C2CCc3ccccc3O2)cc1)n1ccnc1 (stereo not shown) [Compound 217]
IC50 [1]: 5.14 nM
LAD (lowest active dose) (Ovariectomized rats): 10.00 mg/kg

CC(C)C(c1ccc(NC(=O)c2cccc(F)c2)cc1)n1ccnc1 (stereo not shown) [Compound 221]
IC50 [1]: 1.08 nM
LAD (lowest active dose) (Ovariectomized rats): 10.00 mg/kg

CC(C)C(c1ccc(NC(=O)CSc2ncccn2)cc1)n1ccnc1 (stereo not shown) [Compound 224]
IC50 [1]: 4.73 nM
LAD (lowest active dose) (Ovariectomized rats): >10.00 mg/kg

CC(C)C(c1ccc(NC(=O)c2nccc3ccccc23)cc1)n1ccnc1 (stereo not shown) [Compound 229]
IC50 [1]: 1.64 nM
LAD (lowest active dose) (Ovariectomized rats): >10.00 mg/kg

CC(C)C(c1ccc(NC(=O)C2=COc3ccccc3O2)cc1)n1ccnc1 (stereo not shown) [Compound 234]
IC50 [1]: 3.01 nM
LAD (lowest active dose) (Ovariectomized rats): 10.00 mg/kg

CC(C)C(c1ccc(NC(=O)C2Oc3ccccc3O2)cc1)n1ccnc1 (stereo not shown) [Compound 248]
IC50 [1]: 1.79 nM
LAD (lowest active dose) (Ovariectomized rats): 2.50 mg/kg

CC(O)C(=O)Nc1ccc(C(C(C)C)n2ccnc2)cc1 (stereo not shown) [Compound 249]
IC50 [1]: 75.8 nM
LAD (lowest active dose) (Ovariectomized rats): 5.00 mg/kg

Cc1onc(-c2ccccc2)c1C(=O)Nc1ccc(C(C(C)C)n2ccnc2)cc1 (stereo not shown) [Compound 250]
IC50 [1]: 14.9 nM
LAD (lowest active dose) (Ovariectomized rats): >10.00 mg/kg

CC(C)C(c1ccc(NC(=O)Cc2cccnc2)cc1)n1ccnc1 (stereo not shown) [Compound 251]
IC50 [1]: 3.93 nM
LAD (lowest active dose) (Ovariectomized rats): 10.00 mg/kg

CNC(=O)Nc1ccc(C(C(C)C)n2ccnc2)cc1 (stereo not shown) [Compound 267]
IC50 [1]: 7.75 nM
LAD (lowest active dose) (Ovariectomized rats): >10.00 mg/kg

CC(C)C(c1ccc(NC(=O)NCc2ccccc2)cc1)n1ccnc1 (stereo not shown) [Compound 269]
IC50 [1]: 2.66 nM
LAD (lowest active dose) (Ovariectomized rats): >10.00 mg/kg

CC(C)C(c1ccc(NC(=O)NCc2ccc(Cl)cc2)cc1)n1ccnc1 (stereo not shown) [Compound 273]
IC50 [1]: 52.7 nM
LAD (lowest active dose) (Ovariectomized rats): >10.00 mg/kg

CC(C)CCC(c1ccc(NC(=O)Cc2ccc(Cl)cc2)cc1)n1ccnc1 (stereo not shown) [Compound 355]
IC50 [1]: > 100 nM
LAD (lowest active dose) (Ovariectomized rats): >10.00 mg/kg

O=C(Cc1ccc(Cl)cc1)Nc1ccc(C(c2ccccc2)n2ccnc2)cc1 (stereo not shown) [Compound 357]
IC50 [1]: > 100 nM
LAD (lowest active dose) (Ovariectomized rats): >10.00 mg/kg

O=C(Cc1ccc(Cl)cc1)Nc1ccc(C(c2cccc(C(F)(F)F)c2)n2ccnc2)cc1 (stereo not shown) [Compound 361]
IC50 [1]: > 100 nM
LAD (lowest active dose) (Ovariectomized rats): 10.00 mg/kg

O=C(Cc1ccc(Cl)cc1)Nc1ccc(C(C2CCCCC2)n2ccnc2)cc1 (stereo not shown) [Compound 362]
IC50 [1]: 14.3 nM
LAD (lowest active dose) (Ovariectomized rats): 10.00 mg/kg

CCCC(c1ccc(NC(=O)Cc2ccc(Cl)cc2)cc1)n1ccnc1 (stereo not shown) [Compound 363]
IC50 [1]: 1.42 nM
LAD (lowest active dose) (Ovariectomized rats): >10.00 mg/kg

CC(C)(C)C(c1ccc(NC(=O)Cc2ccc(Cl)cc2)cc1)n1ccnc1 (stereo not shown) [Compound 365]
IC50 [1]: 1.08 nM
LAD (lowest active dose) (Ovariectomized rats): 10.00 mg/kg

CCC(c1ccc(NC(=O)Cc2ccc(Cl)cc2)cc1)n1ccnc1 (stereo not shown) [Compound 372]
IC50 [1]: 1.97 nM
LAD (lowest active dose) (Ovariectomized rats): 5.00 mg/kg

O=C(Nc1ccc(C(c2ccccc2)n2ccnc2)cc1)C(O)c1ccccc1 (stereo not shown) [Compound 420]
IC50 [1]: 83.8 nM
LAD (lowest active dose) (Ovariectomized rats): >20.00 mg/kg

O=C(Nc1ccc(C(c2ccc(Cl)cc2)n2ccnc2)cc1)C(O)c1ccccc1 (stereo not shown) [Compound 423]
IC50 [1]: 40.8 nM
LAD (lowest active dose) (Ovariectomized rats): 20.00 mg/kg

O=C(Nc1ccc(C(c2ccccc2)n2ccnc2)cc1)C1COc2ccccc2O1 (stereo not shown) [Compound 425]
IC50 [1]: 38.1 nM
LAD (lowest active dose) (Ovariectomized rats): >10.00 mg/kg

O=C(CC1COc2ccccc2O1)Nc1ccc(C(c2ccccc2)n2ccnc2)cc1 (stereo not shown) [Compound 426]
IC50 [1]: > 100 nM
LAD (lowest active dose) (Ovariectomized rats): >10.00 mg/kg

CCC(C)C(c1ccc(NC(=O)Cc2ccc(O)c(OC)c2)cc1)n1ccnc1 (stereo not shown) [Compound 432]
IC50 [1]: 0.81 nM
LAD (lowest active dose) (Ovariectomized rats): >2.50 mg/kg
